Test system: calf thymus DNA (ct-DNA)
Assay: UV–vis absorption titration with ct-DNA, binding constant Kb
Conditions: 10 µM compound, ct-DNA 1.25–15 µM
Excerpt: The interaction of 1,8-naphthalimides bearing carborane clusters with ct-DNA was also studied by UV–vis absorption titration to better understand the mode of interaction and binding strength. For compounds interacting with DNA by intercalation, bathochromic and hypochromic effects are observed in the absorption spectra. The spectral changes observed in the electronic absorption of 6–11, 16–19, 36–43, and 54–61 in the absence and presence of ct-DNA are illustrated in Figures S271–S296 (ESI). Progressive addition of ct-DNA at the concentration of 1.25–15 µM to a fixed amount of modified naphthalic anhydride or naphthalimide (10 µM concentration) decreased absorbance for almost all the tested modified conjugates, except conjugates 14, 15, and 22–27 for which changes in absorbance were not observed. […] Hypochromicity (10–56%) was also observed for all conjugates, with the highest value for compound 40.
To compare the DNA-binding strength of the tested conjugates, we calculated the binding constant Kb, as described in the Materials and Methods section. […] For conjugates 14, 15, and 22–27, the Kb value could not be determined due to the lack of noticeable changes in the UV spectra.
The measurements were performed by adding aliquots of DMSO stock solution of the tested compounds to the buffer solution (pH 7.4, 20 mM, 50 mM NaCl, Tris-HCl buffer, DMSO content of the final solutions = 0.40–0.61%) to the final concentration of 10 µM. The tested compounds were incubated 5 min, with increasing concentrations ranging from 0 to 15 µM of ct-DNA at 37 °C, then the UV–vis absorption spectra, between 310 and 500 nm (310–550 nm for compounds 36–43 and 54–61), were recorded using a GBC Cintra10 UV–vis spectrometer (Dandenong, Australia) equipped with a GBC Thermocell Peltier Power Supply (Dandenong, Australia) using a 1 cm path length cell. The binding constant was calculated according to the following equation [53]: A0/A−A0=εG/εH−G−εG +εG/εH−G−εG ×1/Kb[DNA] where Kb is the binding constant, A0 and A are the absorbance of the free tested compound, and the apparent one, εG and εH−G are their coefficient, respectively, and [DNA] is the concentration of [DNA] in the base pair. The slope to intercept ratio of the plot between A0/A − A0 versus 1/[DNA] yielded the binding constant.

| Substance | bathochromic shift |
| --- | --- |
| N-[2-(Dimethylamino)ethyl]-4-[(6-(2-(1,7-dicarba-closo-dodecaborane-1-yl)-ethylamino)hexyl)amino]-1,8-naphthalimide [Compound 59] | 1–2 nm |
| N-[2-(Dimethylamino)ethyl]-4-[(2-(2-(1,7-dicarba-closo-dodecaborane-1-yl)-ethylamino)ethyl)amino]-1,8-naphthalimide [Compound 55] | 1–2 nm |

Source: article PMC9101373, “Design of DNA Intercalators Based on 4-Carboranyl-1,8-Naphthalimides: Investigation of Their DNA-Binding Ability and Anticancer Activity” (International Journal of Molecular Sciences, 2022)
